Values of other authors, collected in patent US8617611B2, “Polymeric compositions comprising therapeutic agents in crystalline phases, and methods of forming the same” (Cordis Corporation, priority 2005, dated 2013).

## COc1ccc(/C=C/C(=O)Nc2ccccc2C(=O)O)cc1OC [Tranilast]
DMSO
  solubility in dimethyl sulfoxide (DMSO): soluble
Methylene chloride
  solubility in other solvents such as methylene chloride: not soluble
